# Where “and” joins values, the source holds several entries; their conditions need not be identical. Equal entries are not always repeated.
# Key:
# HepG2 cells = assay: Cell uptake of [^18F]1 in HepG2 cells after 21 h pretreatment; type: cell-based, human; conditions: vehicle-treated HepG2 cells, 1 h uptake
# Description: (§1) The ability of [^18F]1 to bind to MDM2 expressing human tumor cells was assessed using two wild-type p53 cell lines, MCF-7 breast adenocarcinoma, and HepG2 hepatocellular carcinoma. These cell lines have significant MDM2 expression levels and have been utilized previously for assessing potential MDM2 inhibitors, including SP-141 [12, 24, 25]. […] Thus, to examine the uptake and specificity of [^18F]1 by MDM2 expressing tumor cell lines, MCF-7 and HepG2 cells were treated with 0, 1, 5, or 10 µM SP-141 for 21 h, and then assessed for [^18F]1 uptake for 1 h.
# Cell uptake studies of [^18F]1 were conducted using MCF-7 and HepG2 cell lines. […] Next, the incubation medium was removed, cells were rinsed with cold PBS (3 × 0.5 mL) and lysed using Cell Culture Lysis Reagent (0.25 mL, Promega Corporation, Madison, WI, USA) followed by a rinse with PBS (0.125 mL/well). For each well, the supernatant, PBS washes, and the cell lysate were measured for radioactivity in an automated gamma counter (Wallac Wizard™, Perkin Elmer, Waltham, MA, USA). Subsequently, cell lysates were analyzed for protein concentration using the Bradford assay (Bio-Rad, Hercules, CA, USA). Cell uptake for each well was normalized to its protein content and expressed as % uptake/mg protein. Results are presented as mean ± SD for three wells.
# MCF-7 cells [1] = assay: Saturation binding assay with [^18F]1 on MCF-7 cells; parameters: species or system human; conditions: 30 min incubation, nonspecific binding from cells pretreated with 1 µM SP-141 for 25 h, read-out: Kd (equilibrium dissociation constant)
# Description: Next, saturation binding assays were conducted to evaluate the binding affinity of [^18F]1 on MCF-7 cells. In these experiments, MCF-7 cells seeded in 24-well plates were incubated for 30 min with eight increasing concentrations of [^18F]1 in serial two-fold dilutions (185.5–1.4 nM). Nonspecific binding was assessed in parallel using cells that were pretreated with 1 µM SP-141 for about 25 h to induce MDM2 degradation, thereby depleting MDM2 from the cells. Uptake of [^18F]1 in SP-141-pretreated cells was considered nonspecific and was subtracted from the total binding data for untreated cells at each radiotracer concentration to calculate the equilibrium dissociation constant (Kd) by nonlinear regression analysis in Graphpad Prism®.
# For the saturation binding assay with [^18F]1, MCF-7 cells plated in 24-well plates (200,000 cells/well) were treated for 25 h with vehicle (DMSO, <5%; plate #1, for total binding) or SP-141 (1 µM; plate #2, to determine nonspecific binding). […] At each concentration of [^18F]1, nonspecific binding was determined in parallel (plate #2) in cells treated with 1 µM SP-141 to induce MDM2 degradation. Specific binding data were calculated by subtracting nonspecific binding from total binding and fit using the equation “Specific binding with Hill slope” in GraphPad Prism® (GraphPad, v5.01). […]
# MCF-7 cells [2] = assay: Cell uptake of [^18F]1 in MCF-7 cells after 21 h pretreatment; type: cell-based, human; conditions: 1 h uptake
# Description: as §1
# Cell uptake studies of [^18F]1 were conducted using MCF-7 and HepG2 cell lines. Briefly, cells plated in 24-well plates (200,000/well) were treated with varying concentrations of SP-141 (1, 5, or 10 µM) or vehicle for 21 h and incubated with a fresh medium containing [^18F]1 (~18.5 kBq in 0.5 mL medium) for 1 h. Next, the incubation medium was removed, cells were rinsed with cold PBS (3 × 0.5 mL) and lysed using Cell Culture Lysis Reagent (0.25 mL, Promega Corporation, Madison, WI, USA) followed by a rinse with PBS (0.125 mL/well). For each well, the supernatant, PBS washes, and the cell lysate were measured for radioactivity in an automated gamma counter (Wallac Wizard™, Perkin Elmer, Waltham, MA, USA). Subsequently, cell lysates were analyzed for protein concentration using the Bradford assay (Bio-Rad, Hercules, CA, USA). Cell uptake for each well was normalized to its protein content and expressed as % uptake/mg protein. Results are presented as mean ± SD for three wells.
compound,measurement,setting,value
[18F]CCOc1ccc2[nH]c3c(-c4cccc5ccccc45)nccc3c2c1 [[^18F]1],"[^18F]1 uptake, baseline",HepG2 cells,67.5 %/mg protein and ~ 68 %/mg protein
same,Kd,MCF-7 cells [1],78.1 nM
same,[^18F]1 uptake,"MCF-7 cells [2]; MCF-7 cells treated with SP-141 (1, 5 or 10 µM) for 21 h",≤ 18.5 ± 0.0 %/mg protein
same,[^18F]1 uptake,MCF-7 cells [2]; vehicle-treated control MCF-7 cells,71.4 %/mg protein and 71.4 ± 0.0 %/mg protein

# From PMC8070256, “Feasibility of Developing Radiotracers for MDM2: Synthesis and Preliminary Evaluation of an ^18F-Labeled Analogue of the MDM2 Inhibitor SP-141” (Pharmaceuticals, 2021)
